Marks after values point to notes of the source that are not given here.

Consider 59 compounds from US8501781B2 (priority 2009, dated 2013).

This data set can be described thus: logP by HPLC (EEC Directive 79/831 Annex V.A8). It counts as physicochemical.
[1] abbreviates: [b] LC-MS, acidic range, pH 2.7, 0.1% aqueous formic acid and acetonitrile.
The mark [2] stands for this setting: [c] LC-MS, neutral range, pH 7.8, 0.001 molar aqueous ammonium bicarbonate and acetonitrile.

Take `Cc1ccc(Cl)cc1NC(=O)N1CCC(c2nc(C(=O)OCc3ccccc3Br)cs2)CC1` [Example 85]: the logP (in general, the decadic logarithm of the partition coefficient of the neutral form, usually between octanol and water) runs as follows: under setting [1], 4.04; under setting [2], 4.06.

Regarding `Cc1cc(CC(=O)N2CCC(c3nc(C(=O)OC4CCCCC4)cs3)CC2)n(C)n1` [Example 86], the logP by setting is: under setting [1], 2.6; under setting [2], 2.67. Take `O=C(OCc1ccccc1Br)c1csc(C2CCN(C(=O)Cc3cc(Cl)ccc3Cl)CC2)n1` [Example 87]: the logP by setting is: under setting [1], 4.41; under setting [2], 4.44. Taken in the same sequence, the figures for `Cc1ccc(C)c(NC(=S)N2CCC(c3nc(C(=O)OCc4ccccc4Br)cs3)CC2)c1` [Example 88] were 3.68 and 3.71. Take `Cc1cc(CC(=O)N2CCC(c3nc(C(=O)OC4CCCCC4)cs3)CC2)nn1C` [Example 89]: the logP by setting is: under setting [1], 2.66; under setting [2], 2.68. For `Cc1ccc(F)cc1NC(=O)N1CCC(c2nc(C(=O)OCc3ccccc3Br)cs2)CC1` [Example 90] the same measures were 3.77 and 3.75. Taken in the same sequence, the figures for `Cc1ccc(C)c(NC(=O)N2CCC(c3nc(C(=O)OCc4ccccc4Br)cs3)CC2)c1` [Example 91] were 3.86 and 3.84. For the compound `Cc1ccc(F)c(NC(=O)N2CCC(c3nc(C(=O)OCc4ccccc4Br)cs3)CC2)c1` [Example 92], the logP runs as follows: under setting [1], 3.85; under setting [2], 3.83. In the case of `COc1ccc(OC)c(NC(=O)N2CCC(c3nc(C(=O)OC4CCCCC4)cs3)CC2)c1` [Example 93], the logP under setting [1] was 3.76^[b]. On the same count and under the same terms, next, `Cc1ccc([N+](=O)[O-])cc1NC(=O)N1CCC(c2nc(C(=O)OC3CCCCC3)cs2)CC1` [Example 94]: 3.62^[b]; `O=C(OC1CCCc2ccccc21)c1csc(C2CCN(C(=O)Nc3cc(Cl)ccc3Cl)CC2)n1` (stereo not shown) [Example 95]: 4.92^[b]. Still for that read-out and setting: in the case of `Cc1ccc(C)c(CC(=O)N2CCC(c3nc(C(=O)OC4CCCc5ccccc54)cs3)CC2)c1` (stereo not shown) [Example 96] it was 4.54^[b].

Take `COc1ccc(Cl)cc1NC(=O)N1CCC(c2nc(C(=O)OC3CCCc4ccccc43)cs2)CC1` (stereo not shown) [Example 97]: the logP under setting [1] is 4.64^[b]. The same measure, in the same setting: next, `Cc1noc(C)c1NC(=O)N1CCC(c2nc(C(=O)OC3CCCc4ccccc43)cs2)CC1` (stereo not shown) [Example 98]: 2.97^[b]; `O=C(OC1CCCc2ccccc21)c1csc(C2CCN(C(=O)Cc3cc(Cl)ccc3Cl)CC2)n1` (stereo not shown) [Example 99]: 4.73^[b]. On the same count and under the same terms, in the case of `Cc1ccc(Cl)c(NC(=O)N2CCC(c3nc(C(=O)OC4CCCc5ccccc54)cs3)CC2)c1` (stereo not shown) [Example 100] it was 4.61^[b]. Turning to `O=C(OCc1ccccc1Br)c1csc(C2CCN(C(=O)Cc3cc(Br)ccc3Br)CC2)n1` [Example 101], the logP reads like this: under setting [1], 4.68; under setting [2], 4.64.

For `Cc1ccc(C)c(CC(=O)N2CCC(c3nc(C(=O)OCc4ccccc4Br)cs3)CC2)c1` [Example 102], the logP under setting [1] is given as 4.23 and the logP under setting [2] was 4.27.

As for `COc1ccc(OC)c(NC(=O)N2CCC(c3nc(C(=O)OCc4ccccc4Br)cs3)CC2)c1` [Example 103], the logP under setting [1] stood at 3.83 and the logP under setting [2] was determined as 3.81.

For the compound `COc1ccc(C)cc1NC(=O)N1CCC(c2nc(C(=O)OCc3ccccc3Br)cs2)CC1` [Example 104], the logP runs as follows: under setting [1], 4.08; under setting [2], 4.12. Take `COc1ccc(Cl)cc1NC(=O)N1CCC(c2nc(C(=O)OCc3ccccc3Br)cs2)CC1` [Example 105]: the logP by setting is: under setting [1], 4.35; under setting [2], 4.36.

In the case of `O=C(OCc1ccccc1Br)c1csc(C2CCN(C(=O)Nc3cc(C(F)(F)F)ccc3Cl)CC2)n1` [Example 106], the logP by setting is: under setting [1], 4.7; under setting [2], 4.75. Take `Cc1ccc(Cl)c(NC(=O)N2CCC(c3nc(C(=O)OCc4ccccc4Br)cs3)CC2)c1` [Example 107]: the logP is, setting by setting: under setting [1], 4.28; under setting [2], 4.33. For `O=C(OCc1ccccc1Br)c1csc(C2CCN(C(=O)Nc3cc(Cl)ccc3Cl)CC2)n1` [Example 108] the same measures were 4.56 and 4.61. As to `Cn1nc(C(F)(F)F)cc1OC(=O)N1CCC(c2nc(C(=O)OC3CCCCC3)cs2)CC1` [Example 109], the log partition coefficient (logP) is, setting by setting: under setting [1], 4.36; under setting [2], 4.37. As for `Cc1ccc([N+](=O)[O-])cc1NC(=O)N1CCC(c2nc(C(=O)OCc3ccccc3Br)cs2)CC1` [Example 110], the logP came out at 3.69 under setting [1] and 3.70 under setting [2].

Take `O=C(OCc1ccccc1Br)c1csc(C2CCN(C(=O)Nc3cc(C(F)(F)F)ccc3F)CC2)n1` [Example 111]: the logP is, setting by setting: under setting [1], 4.29^[c]; 4.29^[b]; under setting [2], 4.29^[c]; 4.29^[b]. On to `Cc1ccc(Cl)cc1NC(=S)N1CCC(c2nc(C(=O)OCc3ccccc3Br)cs2)CC1` [Example 112], for which the logP amounted to 4.3 under setting [1] and 4.27 under setting [2]. For `O=C(OCc1ccccc1Br)c1csc(C2CCN(C(=S)Nc3cc(Cl)ccc3Cl)CC2)n1` [Example 113] the same measures were 4.4 and 4.39.

With `O=C(OCc1ccccc1Br)c1csc(C2CCN(C(=S)Nc3cc(F)ccc3Br)CC2)n1` [Example 114], the logP reads like this: under setting [1], 4.04; under setting [2], 4.02.

`O=C(OCc1ccccc1Br)c1csc(C2CCN(C(=S)Nc3cc(Cl)ccc3F)CC2)n1` [Example 115] displayed a logP under setting [1] of 4.15 and a logP under setting [2] of 4.14. Taken in the same sequence, the figures for `O=C(OCc1ccccc1Br)c1csc(C2CCN(C(=S)Nc3cc(F)ccc3F)CC2)n1` [Example 116] were 3.83 and 3.87. For `Cc1ccc(F)cc1NC(=S)N1CCC(c2nc(C(=O)OCc3ccccc3Br)cs2)CC1` [Example 117] the same measures were 3.98^[c]; 3.98^[b] and 3.98^[c]; 3.98^[b]. Regarding `O=C(OCc1ccccc1Br)c1csc(C2CCN(C(=S)Nc3cc(C(F)(F)F)ccc3F)CC2)n1` [Example 118], the logP reads like this: under setting [1], 4.34; under setting [2], 4.37. Consider `Cc1noc(C)c1NC(=S)N1CCC(c2nc(C(=O)OCc3ccccc3Br)cs2)CC1` [Example 119], for which the logP stood at 3.2 under setting [1] and 3.21 under setting [2].

Consider `Cc1ccc(C)c(NC(=O)N2CCC(c3nc(C(=O)OCc4c(F)cccc4Cl)cs3)CC2)c1` [Example 120], for which the log partition coefficient (logP) under setting [1] was 3.66^[b]. Still for that read-out and setting: next, `Cc1ccc(C)c(NC(=O)N2CCC(c3nc(C(=O)OCc4c(F)cccc4F)cs3)CC2)c1` [Example 121]: 3.38^[b]; `Cc1ccc(C)c(NC(=O)N2CCC(c3nc(C(=O)O[C@@H]4CCCC[C@H]4c4ccccc4)cs3)CC2)c1` [Example 122]: 4.43^[b]. Same read-out and setting: next, `Cc1ccc(C)c(NC(=O)N2CCC(c3nc(C(=O)O[C@H]4CCCC[C@@H]4c4ccccc4)cs3)CC2)c1` [Example 123]: 4.42^[b]. In the case of `O=C(OC1CCCc2ccccc21)c1csc(C2CCN(C(=S)Nc3cc(F)ccc3F)CC2)n1` (stereo not shown) [Example 124], the logP runs as follows: under setting [1], 4.06; under setting [2], 3.94. As to `Cc1ccc(Cl)cc1NC(=O)N1CCC(c2nc(C(=O)OC3CCCc4ccccc43)cs2)CC1` (stereo not shown) [Example 125], the logP by setting is: under setting [1], 4.27; under setting [2], 4.14. With `Cc1ccc(C)c(NC(=O)N2CCC(F)(c3nc(C(=O)O[C@@H]4CCCc5ccccc54)cs3)CC2)c1` [Example 126], under setting [1], the logP was 4.30^[b]. On the same count and under the same terms, in the case of `Cc1cc(C(F)(F)F)nn1CC(=O)N1CCC(F)(c2nc(C(=O)O[C@@H]3CCCc4ccccc43)cs2)CC1` [Example 127] it was 4.25^[b].

In the case of `Cc1ccc(C)c(NC(=O)N2CCC(c3nc(C(=O)OCc4ccccc4Cl)cs3)CC2)c1` [Example 135], the logP under setting [1] is 3.73^[b]. In the case of `Cc1ccc(C)c(NC(=O)N2CCC(c3nc(C(=O)OCc4ccccc4I)cs3)CC2)c1` [Example 136], the logP under setting [1] was 3.96^[b]. The same measure, in the same setting: next, `Cc1ccc(C)c(NC(=O)N2CCC(c3nc(C(=O)OCc4c(Cl)cccc4Cl)cs3)CC2)c1` [Example 137]: 3.97^[b]; `COc1cccc(F)c1C(C)OC(=O)c1csc(C2CCN(C(=O)Nc3cc(C)ccc3C)CC2)n1` (stereo not shown) [Example 138]: 3.79^[b]. Regarding `Cc1ccc(C)c(NC(=O)N2CCC(c3nc(C(=O)OCc4ccncc4Cl)cs3)CC2)c1` [Example 139], the logP under setting [1] was 2.77^[b].

Regarding `Cc1ccc(C)c(NC(=O)N2CCC(c3nc(C(=O)OCc4ccccc4F)cs3)CC2)c1` [Example 140], under setting [1], the logP was 3.39^[b]. The same measure, in the same setting: next, `Cc1ccc(C)c(NC(=O)N2CCC(c3nc(C(=O)Oc4c(C)cccc4Br)cs3)CC2)c1` [Example 141]: 3.82^[b]; `COc1cccc(Br)c1OC(=O)c1csc(C2CCN(C(=O)Nc3cc(C)ccc3C)CC2)n1` [Example 142]: 3.56^[b]. For `Cc1ccc(C)c(NC(=O)N2CCC(c3nc(C(=O)Oc4c(C)cccc4Cl)cs3)CC2)c1` [Example 143], the logP under setting [1] is 3.76^[b]. For the compound `Cc1ccc(C)c(NC(=O)N2CCC(c3nc(C(=O)Oc4c(Br)cccc4Br)cs3)CC2)c1` [Example 144], the logP under setting [1] is 3.93^[b]. In the case of `COc1cccc(F)c1OC(=O)c1csc(C2CCN(C(=O)Nc3cc(C)ccc3C)CC2)n1` [Example 145], under setting [1], the logP was 3.28^[b]. In the case of `Cc1ccc(C)c(NC(=O)N2CCC(c3nc(C(=O)Oc4ccccc4Br)cs3)CC2)c1` [Example 146], the logP under setting [1] is 3.58^[b]. As for `Cc1ccc(C)c(NC(=O)N2CCC(c3nc(C(=O)Oc4ccccc4F)cs3)CC2)c1` [Example 147], the log partition coefficient (logP) under setting [1] was 3.27^[b]. Consider `Cc1ccc(C)c(NC(=O)N2CCC(c3nc(C(=O)Oc4ccccc4Cl)cs3)CC2)c1` [Example 148], for which the logP under setting [1] was 3.51^[b]. Consider `Cc1ccc(C)c(NC(=O)N2CCC(c3nc(C(=O)Oc4c(F)cccc4Cl)cs3)CC2)c1` [Example 149], for which, under setting [1], the logP is 3.62^[b]. On the same count and under the same terms, next, `Cc1ccc(C)c(NC(=O)N2CCC(c3nc(C(=O)Oc4c(F)cccc4F)cs3)CC2)c1` [Example 150]: 3.39^[b].
